{"source": "patent US7964624B1", "about": "“Inhibitors of serine proteases” (priority 2005, dated 2011)", "key": {"HCV NS3 protease domain": {"target": "T1, HCV NS3 protease domain (Hepatitis C virus genotype 1b, UniProt Q9WMX2)", "T1 construct": "The first 181 amino acids of NS3 (residues 1027-1207 of the viral polyprotein); hexa-histidine (C); made in house; host or cells: E. coli BL21/DE3 pLysS", "assay": "biochemical", "settings": "Enzyme Assay 1 (HCV NS3 Protease Domain Peptide Cleavage Assay) activity, apparent Ki class"}, "[1]": {"target": "T2, full-length hepatitis C viral protein NS3•4A (Hepatitis C virus genotype 1a, UniProt P27958)", "T2 construct": "hexa-histidine (N); made in house; host or cells: Sf9 insect cells (baculovirus, pVL1392)", "assay": "biochemical", "set-up": "species or system HCV sub-type strain 1a", "settings": "Enzyme Assay 2 (HCV NS3 Peptide Cleavage Assay) activity, apparent Ki class"}}}
{"smiles": "CCC[C@H](NC(=O)[C@@H]1C[C@]2(CC(c3cccc(Cl)c3)=NO2)CN1C(=O)C(C)N1Cc2ccccc2C1=O)C(=O)C(=O)NC1CC1", "note": "(stereo partly shown) [Compound 574]", "values": [{"measurement": "Ki", "setting": "HCV NS3 protease domain", "value": "> 500", "unit": "nM"}, {"measurement": "Ki", "setting": "[1]", "value": "> 500", "unit": "nM"}]}
{"smiles": "CCC[C@H](NC(=O)[C@@H]1CC2(CC(c3cccc(Cl)c3)=NO2)CN1C(=O)[C@H](CCSCC)NC(C)=O)C(=O)C(=O)NC1CC1", "note": "(stereo partly shown) [Compound 54]", "values": [{"measurement": "Ki", "setting": "HCV NS3 protease domain", "value": "> 500", "unit": "nM"}, {"measurement": "Ki", "setting": "[1]", "value": "100 to 500", "unit": "nM"}]}
{"smiles": "CCC[C@H](NC(=O)[C@@H]1C[C@]2(CC(c3cc(Cl)c(OC)cc3C)=NO2)CN1C(=O)[C@@H](NC(=O)CC1CCCCC1)C(C)(C)C)C(=O)C(=O)NC1CC1", "note": "[Compound 366]", "values": [{"measurement": "Ki", "setting": "HCV NS3 protease domain", "value": "100 to 500", "unit": "nM"}, {"measurement": "Ki", "setting": "[1]", "value": "< 100", "unit": "nM"}]}
{"smiles": "CCC[C@H](NC(=O)[C@@H]1C[C@]2(CC(c3cccc(Cl)c3)=NO2)CN1C(=O)[C@@H](NC(=O)C1CCC(=O)N1)C(C)C)C(=O)C(=O)NC1CC1", "note": "(stereo partly shown) [Compound 218]", "values": [{"measurement": "Ki", "setting": "HCV NS3 protease domain", "value": "> 500", "unit": "nM"}, {"measurement": "Ki", "setting": "[1]", "value": "> 500", "unit": "nM"}]}
{"smiles": "CCC[C@H](NC(=O)[C@@H]1C[C@]2(CC(c3cccc(Cl)c3)=NO2)CN1C(=O)[C@@H](CC(=O)NC1CCCCC1)C(C)C)C(=O)C(=O)NC1CC1", "note": "[Compound 21]", "values": [{"measurement": "Ki", "setting": "HCV NS3 protease domain", "value": "> 500", "unit": "nM"}, {"measurement": "Ki", "setting": "[1]", "value": "> 500", "unit": "nM"}]}
{"smiles": "CCC[C@H](NC(=O)[C@@H]1C[C@]2(CC(c3cccc(Cl)c3)=NO2)CN1C(=O)[C@@H](NC(=O)CC1CCCCC1)C(C)(C)C)C(=O)C(=O)NC1(c2ccccc2)CC1", "note": "[Compound 429]", "values": [{"measurement": "Ki", "setting": "HCV NS3 protease domain", "value": "> 500", "unit": "nM"}, {"measurement": "Ki", "setting": "[1]", "value": "> 500", "unit": "nM"}]}
{"smiles": "CCC[C@H](NC(=O)[C@@H]1C[C@]2(CC(C(=O)c3ccccc3)=NO2)CN1C(=O)[C@@H](NC(=O)NC(C)(C)C)C(C)(C)C)C(=O)C(=O)NC1CC1", "note": "[Compound 119]", "values": [{"measurement": "Ki", "setting": "HCV NS3 protease domain", "value": "100 to 500", "unit": "nM"}, {"measurement": "Ki", "setting": "[1]", "value": "100 to 500", "unit": "nM"}]}
{"smiles": "C=C[C@@H]1C[C@]1(NC(=O)[C@@H]1C[C@]2(CC(c3cccc(Cl)c3)=NO2)CN1C(=O)[C@@H](NC(=O)CC1CCCCC1)C(C)(C)C)C(=O)NS(=O)(=O)C1CC1", "note": "[Compound 162]", "values": [{"measurement": "Ki", "setting": "HCV NS3 protease domain", "value": "100 to 500", "unit": "nM"}, {"measurement": "Ki", "setting": "[1]", "value": "< 100", "unit": "nM"}]}
{"smiles": "CCC[C@H](NC(=O)[C@@H]1C[C@]2(CC(c3cccc(Cl)c3)=NO2)CN1C(=O)[C@@H](NC(=O)CC1CCCCC1)C(C)(C)C)C(=O)C(=O)N1CC(C)(O)C1", "note": "[Compound 426]", "values": [{"measurement": "Ki", "setting": "HCV NS3 protease domain", "value": "> 500", "unit": "nM"}, {"measurement": "Ki", "setting": "[1]", "value": "100 to 500", "unit": "nM"}]}
{"smiles": "CCC[C@H](NC(=O)[C@@H]1C[C@]2(CC(c3cccc(Cl)c3)=NO2)CN1C(=O)[C@@H](NC(=O)CC1CCCCC1)C(C)(C)C)C(=O)C(=O)NCc1ccc(-n2cccn2)cc1", "note": "[Compound 73]", "values": [{"measurement": "Ki", "setting": "HCV NS3 protease domain", "value": "> 500", "unit": "nM"}, {"measurement": "Ki", "setting": "[1]", "value": "100 to 500", "unit": "nM"}]}
{"smiles": "C=CCOC(=O)N[C@H](C(=O)N1C[C@@]2(CC(c3cccc(Cl)c3)=NO2)C[C@H]1C(=O)N[C@]1(C(=O)NS(=O)(=O)C2CC2)C[C@H]1C=C)C(C)(C)C", "note": "[Compound 130]", "values": [{"measurement": "Ki", "setting": "HCV NS3 protease domain", "value": "100 to 500", "unit": "nM"}, {"measurement": "Ki", "setting": "[1]", "value": "< 100", "unit": "nM"}]}
{"smiles": "CCC[C@H](NC(=O)[C@@H]1C[C@]2(CC(c3cccc(Cl)c3)=NO2)CN1C(=O)[C@@H](NC(=O)CC1CCCCC1)C(C)(C)C)C(=O)C(=O)NCCc1c[nH]c2ccc(OC)cc12", "note": "[Compound 302]", "values": [{"measurement": "Ki", "setting": "HCV NS3 protease domain", "value": "100 to 500", "unit": "nM"}, {"measurement": "Ki", "setting": "[1]", "value": "100 to 500", "unit": "nM"}]}
{"smiles": "CC(C)(C)[C@H](NC(=O)CC1CCCCC1)C(=O)N1C[C@@]2(CC(c3cccc(Cl)c3)=NO2)C[C@H]1C(=O)NC(CC1CCC1)C(=O)C(=O)NCC(F)(F)F", "note": "(stereo partly shown) [Compound 268]", "values": [{"measurement": "Ki", "setting": "HCV NS3 protease domain", "value": "100 to 500", "unit": "nM"}, {"measurement": "Ki", "setting": "[1]", "value": "> 500", "unit": "nM"}]}
{"smiles": "CCC[C@H](NC(=O)[C@@H]1C[C@]2(CC(c3ccc(C#N)cc3)=NO2)CN1C(=O)[C@@H](NC(=O)CC1CCOCC1)C(C)(C)C)C(=O)C(=O)NC1CC1", "note": "[Compound 177]", "values": [{"measurement": "Ki", "setting": "HCV NS3 protease domain", "value": "> 500", "unit": "nM"}, {"measurement": "Ki", "setting": "[1]", "value": "100 to 500", "unit": "nM"}]}
{"smiles": "CCC[C@H](NC(=O)[C@@H]1C[C@]2(CC(c3cccc(Cl)c3)=NO2)CN1C(=O)[C@@H](NC(=O)CC1CCCCC1)C(C)(C)C)C(=O)C(=O)N1CCCC1", "note": "[Compound 496]", "values": [{"measurement": "Ki", "setting": "HCV NS3 protease domain", "value": "> 500", "unit": "nM"}, {"measurement": "Ki", "setting": "[1]", "value": "> 500", "unit": "nM"}]}
{"smiles": "CCC[C@H](NC(=O)[C@@H]1C[C@]2(CC(c3cccc(Cl)c3)=NO2)CN1C(=O)[C@@H](NC(=O)C=C1CCCCC1)C(C)(C)C)C(=O)C(=O)NC1CC1", "note": "[Compound 252]", "values": [{"measurement": "Ki", "setting": "HCV NS3 protease domain", "value": "100 to 500", "unit": "nM"}, {"measurement": "Ki", "setting": "[1]", "value": "< 100", "unit": "nM"}]}
{"smiles": "CCC[C@H](NC(=O)[C@@H]1C[C@]2(CC(c3cc(Cl)c(OC)cc3OC)=NO2)CN1C(=O)[C@@H](NC(=O)CC1CCOCC1)C(C)(C)C)C(=O)C(=O)NC1CC1", "note": "[Compound 326]", "values": [{"measurement": "Ki", "setting": "HCV NS3 protease domain", "value": "100 to 500", "unit": "nM"}, {"measurement": "Ki", "setting": "[1]", "value": "100 to 500", "unit": "nM"}]}
